According to patent publication US20240254119A1 (THIRD HARMONIC BIO, INC., priority 2022, published 2024):
Where two headings read alike, the source gives them in different places.

Assay: Three time point assay for plasma, brain and testes distribution after oral dosing
Format: in vivo, rat
Conditions: for Brain concentration / Kp brain/plasma / Kp testes/plasma / Plasma concentration / Testes concentration / concentration at 0.5 h / Kp at 0.5 h / concentration at 2 h / Kp at 2 h / concentration at 7 h / Kp at 7 h: rat, oral dosing; for concentration at 0.5 h / Kp at 0.5 h / concentration at 2 h / Kp at 2 h / concentration at 7 h / Kp at 7 h: male, SD, 10 mg/kg; for brain penetration as indicated by Kp (Cbrain/Cplasma): result in words
Experimental: Exemplary compounds were tested for distribution in plasma, brain and testes tissue following oral dosing of the compounds in rats. Procedures and results are described below.
Male SD Rats were group-housed (up to four animals/sex/cage) in polysulfone cages with certified aspen wood bedding during acclimation and study period.
Certified rodent diet and water was provided to all animals ad libitum, unless fasting for study procedures.
Appropriate amount of test article was accurately weighed and mixed with an appropriate volume of vehicle to get a clear solution or a uniform suspension; vortexing or sonication in water bath may also be need. Animals were dosed within four hours after the formulation is prepared.
For PO dosing, the dose formulation was administered via oral gavage following facility SOPs. The dose volume was determined by the animals' body weight collected on the morning of dosing day. The dose was 10 mg/kg.
Each blood collection (about 1 mL per time point at one or more of 0.5 h, 2 h, 3 h, 5.3 h, and 7 h) was performed from jugular vein or other suitable site of each animal into pre-chilled commercial EDTA-K2 tubes and placed on wet ice until centrifugation.
Blood samples were processed for plasma by centrifugation at approximately 4° C., 3,200 g for 10 min. Plasma was collected respectively and transferred into pre-labeled 96 well plate or polypropylene tubes, quick frozen over dry ice and kept at −60° C. or lower until LC-MS/MS analysis.
Rat brain was perfused with PBS to remove blood before harvest.
After perfusion, brain and testis were homogenized using homogenizing buffer (15 mM PBS (pH7.4):MeOH=2:1) at the ratio of 1:9 (1 g tissue with 9 mL buffer, the dilution ratio is 10). The brain homogenate was kept at −60° C. or lower until LC-MS/MS analysis. General sample processing procedure (brain homogenate & testis homogenate) using 96-well plate: • 1). An aliquot of 40 μL unknown sample, calibration standard, quality control and dilution quality control (if have), single blank, and double blank sample was added to the 96-well plate respectively; • 2). Each sample (except the double blank) was quenched with 400 μL of IS1 respectively (double blank sample was quenched with 400 μL of I), and then the mixture was vortex-mixed for 10 min at 800 rpm and centrifuged for 15 min at 3220×g, 4° C.; • 3). An aliquot of 50 μL supernatant was transferred to another clean 96-well plate and centrifuged for 5 min at 3220×g, 4° C., then the supernatant was directly injected for LC-MS/MS analysis.
• 1. A LC-MS/MS method for the quantitative determination of test compound in biological matrix was developed under Non-GLP compliance. • 2. A calibration curve with at least 6 non-zero calibration standards was applied for the method including LLOQ. • 3. A set of QCs consisting of low, middle, and high concentrations were applied for the method. • 4. N in 1 cassette LC-MS/MS method was developed for samples coming from different studies and the interference among all cassette analytes was evaluated during the method development. • 5. Cassette administration assay was performed if the mass difference (Δmass) among different analytes was more than 4 Da. In this case, interference evaluation was not necessary.
• 1. If sample number within a batch was ≤12, at least one set of standard curve separated with two parts through begin and end of the sequence, was included in the run, and QCs were not required. The recommended injection order was C8, C6, C4, C2, study samples, C7, C5, C3, C1. • 2. If sample number within a batch was >12, one standard curve and two sets of QCs with low, middle and high concentrations were applied for bioanalysis. Meanwhile, QCs number should be more than 5% of study sample number. • 3. Samples with the same types of matrix in different studies were quantified in one analysis run by using the developed N in 1 cassette LC-MS/MS method. • 4. […]

Compound	Brain concentration (time point 2 h) [ng/g]	Kp brain/plasma (time point 2 h)	Kp testes/plasma (time point 2 h)	Plasma concentration (time point 2 h) [ng/mL]	Testes concentration (time point 2 h) [ng/g]	also measured
Cc1ccc(-c2noc(C3(C)CC(F)(F)CN3)n2)cc1NC(=O)c1cnc2ccccn12 (racemic) [Compound I-328]	25.4	0.42	0.93	60.3	56.2	
Cc1ccc(-c2noc(C3CCS(=O)(=O)N3)n2)cc1NC(=O)c1cnc2ccccn12 (racemic) [Compound I-330]	0		0.86	117	100	
Cc1ccc(-c2noc(CC(C)O)n2)cc1NC(=O)c1cnc2ccccn12 (racemic) [Compound I-363]	46	0.06	0.13	815	104	
Cc1ccc(-c2noc(C3CCS(=O)(=O)C3)n2)cc1NC(=O)c1cnc2ccccn12 (racemic) [Compound I-389]	63	0.03	0.91	2030	1830	
COc1ccn2c(C(=O)Nc3cc(-c4noc(CC(O)C(F)F)n4)ccc3C)cnc2c1 (single isomer, unassigned) [Compound I-76]						Brain concentration (time point 3 h): 55.9 ng/g; Kp brain/plasma (time point 3 h): 0.09; Kp testes/plasma (time point 3 h): 0.41; Plasma concentration (time point 3 h): 598 ng/mL; Testes concentration (time point 3 h): 246 ng/g
Cc1ccc(-c2noc(C(C)NS(C)(=O)=O)n2)cc1NC(=O)c1cnc2ccccn12 (single isomer, unassigned) [Compound I-237]	0		0.18	1090	192	
Cc1ccc(-c2noc(C(C)NS(C)(=O)=O)n2)cc1NC(=O)c1cnc2ccccn12 (single isomer, unassigned) [Compound I-238]	0		0.17	791	131	
Cc1ccc(-c2noc([C@H]3C[C@@H]3F)n2)cc1NC(=O)c1cnc2cc(COCC(C)(C)O)ccn12 [Compound I-71, N-[5-[5-[(1R,2S)-2-fluorocyclopropyl]-1,2,4-oxadiazol-3-yl]-2-methyl-phenyl]-7-[(2-hydroxy-2-methyl-propoxy)methyl]imidazo[1,2-a]pyridine-3-carboxamide]						concentration at 0.5 h (brain, time point 0.5 h, read-out: Brain concentration): 91.8 ng/g; Kp at 0.5 h (brain, time point 0.5 h, read-out: Kp brain/plasma): 0.05; concentration at 2 h (brain, time point 2 h, read-out: Brain concentration): 169 ng/g; Kp at 2 h (brain, time point 2 h, read-out: Kp brain/plasma): 0.05; concentration at 7 h (brain, time point 7 h, read-out: Brain concentration): 126 ng/g; Kp at 7 h (brain, time point 7 h, read-out: Kp brain/plasma): 0.03; concentration at 0.5 h (plasma, time point 0.5 h, read-out: Plasma concentration): 1810 ng/mL; concentration at 2 h (plasma, time point 2 h, read-out: Plasma concentration): 3420 ng/mL; concentration at 7 h (plasma, time point 7 h, read-out: Plasma concentration): 4110 ng/mL; Kp at 0.5 h (testes, time point 0.5 h, read-out: Kp testes/plasma): 0.09; concentration at 0.5 h (testes, time point 0.5 h, read-out: Testes concentration): 166 ng/g; Kp at 2 h (testes, time point 2 h, read-out: Kp testes/plasma): 0.19; concentration at 2 h (testes, time point 2 h, read-out: Testes concentration): 653 ng/g; Kp at 7 h (testes, time point 7 h, read-out: Kp testes/plasma): 0.18; concentration at 7 h (testes, time point 7 h, read-out: Testes concentration): 739 ng/g; brain penetration as indicated by Kp (Cbrain/Cplasma): do not significantly penetrate the brain or minimally penetrate the brain
COCCOCc1ccn2c(C(=O)Nc3cc(-c4noc([C@H]5C[C@@H]5F)n4)ccc3C)cnc2c1 [Compound I-84]	400	0.07	0.11	5900	655	brain penetration as indicated by Kp (Cbrain/Cplasma): do not significantly penetrate the brain or minimally penetrate the brain
Cc1ccc(-c2noc([C@H]3C[C@@H]3F)n2)cc1NC(=O)c1cnc2cc(OC(F)(F)F)ccn12 [Compound I-87]	954	0.68	0.71	1480	989	Brain concentration (time point 0.5 h): 248 ng/g; Kp brain/plasma (time point 0.5 h): 0.60; Kp testes/plasma (time point 0.5 h): 0.38; Plasma concentration (time point 0.5 h): 454 ng/mL; Testes concentration (time point 0.5 h): 159 ng/g; Brain concentration (time point 7 h): 1730 ng/g; Kp brain/plasma (time point 7 h): 0.36; Kp testes/plasma (time point 7 h): 0.34; Plasma concentration (time point 7 h): 4970 ng/mL; Testes concentration (time point 7 h): 1650 ng/g
Cc1ccc(-c2noc([C@H]3C[C@@H]3F)n2)cc1NC(=O)c1cnc2cc(OC(C)C)ccn12 [Compound I-88]	1200	0.14	0.16	8390	1330	Brain concentration (time point 0.5 h): 722 ng/g; Kp brain/plasma (time point 0.5 h): 0.27; Kp testes/plasma (time point 0.5 h): 0.19; Plasma concentration (time point 0.5 h): 2640 ng/mL; Testes concentration (time point 0.5 h): 480 ng/g; Brain concentration (time point 7 h): 1250 ng/g; Kp brain/plasma (time point 7 h): 0.15; Kp testes/plasma (time point 7 h): 0.21; Plasma concentration (time point 7 h): 9200 ng/mL; Testes concentration (time point 7 h): 1950 ng/g
Cc1ccc(-c2noc(CC(O)C(F)F)n2)cc1NC(=O)c1cnc2ccccn12 (stereo not drawn) [Compound I-114]	113	0.07	0.29	1680	482	Brain concentration (time point 0.5 h): 106 ng/g; Kp brain/plasma (time point 0.5 h): 0.07; Kp testes/plasma (time point 0.5 h): 0.17; Plasma concentration (time point 0.5 h): 1540 ng/mL; Testes concentration (time point 0.5 h): 256 ng/g; Brain concentration (time point 7 h): 45.5 ng/g; Kp brain/plasma (time point 7 h): 0.07; Kp testes/plasma (time point 7 h): 0.38; Plasma concentration (time point 7 h): 693 ng/mL; Testes concentration (time point 7 h): 248 ng/g; brain penetration as indicated by Kp (Cbrain/Cplasma): do not significantly penetrate the brain or minimally penetrate the brain
COC(=O)N1CC(c2nc(-c3ccc(C(F)F)c(NC(=O)c4cnc5ccccn45)c3)no2)C1 [Compound I-225]	506	0.15	0.33	3420	1140	
Cc1ccc(-c2noc([C@@H](C)O)n2)cc1NC(=O)c1cnc2ccccn12 [Compound I-270]	25.6	0.06	0.09	422	39.3	
Cc1ccc(-c2noc([C@H](C)O)n2)cc1NC(=O)c1cnc2ccccn12 [Compound I-271]	325	0.18	0.58	1760	1020	
Cc1ccc(-c2noc([C@H]3C[C@@H]3F)n2)cc1NC(=O)c1cnc2cc(N3CCC3)ccn12 [Compound I-295]	377	0.18	0.49	2080	1020	
